pEC50: −log10 of the molar value. The source made the active and inactive calls. How the calls were made is not given here.
Target: G-protein coupled estrogen receptor 1 (Homo sapiens) (UniProt Q99527)
Assay: GPR30 binders, concentration-response potency, dose response, cell-based (AID 1224)
Conditions: GPR30-expressing cells, fluorescent ligand binding displacement

EC50 | remaining binding, lower = displacement (at 100 µM (top of the series)) | pEC50 | Structure (SMILES)
> 10000 nM (inactive) |  |  | CC(=O)Oc1ccc(C2Nc3c(C(=O)O)ccc([N+](=O)[O-])c3C3C=CCC32)cc1 (stereo not drawn)
 | inactive |  | CC(=O)c1ccc2c(c1)C1C=CCC1C(c1cccc([N+](=O)[O-])c1)N2 (stereo not drawn)
 |  | 7.21 | O=C(O)c1ccc([N+](=O)[O-])c2c1NC(c1ccccc1)C1CC=CC21 (stereo not drawn)

From PubChem BioAssay AID1224 (NMMLSC, 2008)
